Experimental data from article PMC4926213, “Synthetic small molecule GLP-1 secretagogues prepared by means of a three-component indole annulation strategy” (Scientific Reports, 2016).

Experiments:
Type in all cases: cell-based
[1] = target: T1, TRPA1 (Rattus norvegicus, UniProt Q6RI86, C622S); assay: fura-2 Ca2+ assay in HEK-293 cells transfected with C622S rat TRPA1
T1 construct: mutant rat C622S TRPA1

[2] = target: T2, TRPA1 (Mus musculus, UniProt Q8BLA8); assay: fura-2 Ca2+ assay and whole-cell patch clamp in STC-1 cells; blocked by A967079 and HC030031
T2 construct: endogenous channel in mouse STC-1 cells
T2 sequence (Q8BLA8 whole entry): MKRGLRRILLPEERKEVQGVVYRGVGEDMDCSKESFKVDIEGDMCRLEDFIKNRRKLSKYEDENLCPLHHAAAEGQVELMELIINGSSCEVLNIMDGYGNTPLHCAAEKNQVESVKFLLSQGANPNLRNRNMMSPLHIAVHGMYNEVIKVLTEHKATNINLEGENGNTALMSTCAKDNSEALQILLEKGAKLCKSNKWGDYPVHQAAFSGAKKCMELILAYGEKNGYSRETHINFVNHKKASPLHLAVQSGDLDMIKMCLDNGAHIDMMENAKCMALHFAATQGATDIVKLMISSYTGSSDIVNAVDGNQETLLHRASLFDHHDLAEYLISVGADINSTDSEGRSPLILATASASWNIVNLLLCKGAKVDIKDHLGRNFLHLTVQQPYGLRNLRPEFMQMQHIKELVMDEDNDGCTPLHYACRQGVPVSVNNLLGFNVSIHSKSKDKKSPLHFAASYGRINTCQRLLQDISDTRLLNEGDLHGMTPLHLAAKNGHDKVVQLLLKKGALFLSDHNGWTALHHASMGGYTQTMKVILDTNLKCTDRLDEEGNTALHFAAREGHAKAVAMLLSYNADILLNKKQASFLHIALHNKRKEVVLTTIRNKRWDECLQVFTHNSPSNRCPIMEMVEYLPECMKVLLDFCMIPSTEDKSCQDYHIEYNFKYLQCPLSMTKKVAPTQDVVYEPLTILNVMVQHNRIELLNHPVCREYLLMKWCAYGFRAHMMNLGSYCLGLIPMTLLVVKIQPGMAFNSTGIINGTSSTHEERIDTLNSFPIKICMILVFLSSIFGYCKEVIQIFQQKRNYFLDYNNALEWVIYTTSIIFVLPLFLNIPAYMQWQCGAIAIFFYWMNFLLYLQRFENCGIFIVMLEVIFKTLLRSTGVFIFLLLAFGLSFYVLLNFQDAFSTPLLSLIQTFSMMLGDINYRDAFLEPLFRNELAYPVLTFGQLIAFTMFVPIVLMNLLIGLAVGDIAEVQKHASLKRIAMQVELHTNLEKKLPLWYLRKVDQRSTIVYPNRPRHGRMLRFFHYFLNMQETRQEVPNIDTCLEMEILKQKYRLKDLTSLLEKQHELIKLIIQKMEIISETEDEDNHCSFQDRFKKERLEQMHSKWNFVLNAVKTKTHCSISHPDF

[3] = target: T3, TRPA1 (Rattus norvegicus, UniProt Q6RI86); assay: fura-2 Ca2+ assay in HEK-293 cells transfected with rat TRPA1 versus empty vector; loss of response in C622S
T3 construct: wild-type rat TRPA1 (GenBank AY496961.1), 5' fused to YFP
T3 sequence (Q6RI86 whole entry, the tested form may be a part): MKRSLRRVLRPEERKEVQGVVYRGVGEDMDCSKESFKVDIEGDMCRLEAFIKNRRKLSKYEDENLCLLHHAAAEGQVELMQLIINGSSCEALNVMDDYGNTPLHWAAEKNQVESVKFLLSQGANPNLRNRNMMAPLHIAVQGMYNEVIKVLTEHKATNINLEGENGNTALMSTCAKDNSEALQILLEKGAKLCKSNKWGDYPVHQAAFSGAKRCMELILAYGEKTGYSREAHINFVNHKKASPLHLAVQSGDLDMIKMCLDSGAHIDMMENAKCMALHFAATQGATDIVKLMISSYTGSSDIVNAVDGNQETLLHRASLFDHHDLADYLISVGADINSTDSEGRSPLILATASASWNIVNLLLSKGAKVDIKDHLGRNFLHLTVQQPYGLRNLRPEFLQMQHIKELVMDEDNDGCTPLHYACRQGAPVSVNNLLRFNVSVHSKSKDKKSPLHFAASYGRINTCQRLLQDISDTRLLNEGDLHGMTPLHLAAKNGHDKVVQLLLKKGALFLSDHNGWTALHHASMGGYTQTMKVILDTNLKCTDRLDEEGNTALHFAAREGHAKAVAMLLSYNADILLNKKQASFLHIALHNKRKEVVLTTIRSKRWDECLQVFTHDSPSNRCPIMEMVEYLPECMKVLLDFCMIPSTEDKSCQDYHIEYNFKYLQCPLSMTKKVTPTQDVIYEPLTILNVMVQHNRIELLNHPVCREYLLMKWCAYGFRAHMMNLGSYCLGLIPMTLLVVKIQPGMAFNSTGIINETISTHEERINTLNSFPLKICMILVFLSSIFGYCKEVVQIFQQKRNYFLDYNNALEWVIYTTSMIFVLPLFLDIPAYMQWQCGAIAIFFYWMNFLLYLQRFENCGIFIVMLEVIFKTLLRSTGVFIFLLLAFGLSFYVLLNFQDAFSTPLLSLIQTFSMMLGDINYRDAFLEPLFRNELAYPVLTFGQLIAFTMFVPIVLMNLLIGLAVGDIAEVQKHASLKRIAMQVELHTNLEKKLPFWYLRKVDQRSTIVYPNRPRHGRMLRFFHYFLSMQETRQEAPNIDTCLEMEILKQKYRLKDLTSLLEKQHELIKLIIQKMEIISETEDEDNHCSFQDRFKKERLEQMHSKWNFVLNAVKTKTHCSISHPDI

T1 sequence (Q6RI86 whole entry C622S): as the sequence (Q6RI86 whole entry, the tested form may be a part) above, with C622S counted along it

SMILES | fura-2 Ca2+ assay in HEK-293 cells transfected with C622S rat TRPA1 [1] | EC50 [2] | fura-2 Ca2+ assay in HEK-293 cells transfected with rat TRPA1 versus empty vecto [3]
CC1(C)c2c([nH]c3ccc(Cl)cc23)C2C=CC1C2 (racemic) [JWU-A021] | mutant C622S rat TRPA1 cDNA responded to JWU-A021 in a manner nearly identical to that of cells transfected with WT | ~0.2 µM | –
C=CCN=C=S [AITC, allyl isothiocyanate] | – | – | the electrophile AITC must covalently modify C622 in order to fully activate the channel
